Laboratory results: patent US7425534B2, “Compositions and methods for modulating muscle cell and tissue contractility” (The Trustees of the University of Pennsylvania, priority 2000, dated 2008)
Each block holds one molecule with its values, some of them ahead of it.

System: rat aortic rings
Test: Phenylepherine (PE)-induced contraction of isolated rat aortic rings (isometric tension)
Format: cell-based
From the text: Male Sprague Dawley rats (250-275 g) were sacrificed by exsanguination and thoracic aortae were removed with care to avoid damage to the endothelium, dissected free of fat and connective tissue, and cut into transverse rings, each 5 mm in length (Kyong et al., 1992, Br. J. Pharmacol. 107:983-990; Yohtaro et al., 1987, Eur. J. Pharmacol. 131:75-78; Chang et al., 1992, Br. J. Pharmacol. 107:983-990; Oyama et al., 1986, Eur. J. Pharmacol. 132:75-78). The tissues were maintained in an oxygenated (95% O2; 5% CO2) solution of Krebs-Henseliet (KH) buffer (144 millimolar NaCl, 5.9 millimolar KCl, 1.6 millimolar CaCl2, 1.2 millimolar MgSO4, 1.2 millimolar KH2PO4, 25 millimolar NaHCO3, and 11.1 millimolar D-glucose). The aortic rings were mounted to record isometric tension in a 10 milliliter bath containing KH solution under continuous aeration. The aortic rings were equilibrated for 1.5 hours at 37° C. and maintained under a resting tension of 2 g throughout the experiment. Each aortic ring was then contracted by adding phenylepherine (PE) in stepwise increments raising the concentration of PE from 10^−10 molar to 10^−5 molar. […] In every experiment, aortic rings exposed to KH buffer alone were analyzed in parallel as controls. Isometric tension was evaluated using a force displacement transducer and recorded online using a computerized system (ExperimentiaAE, Budapest, Hungary).

EC50 (PE alone, K-H buffer, no uPA species): 29 nM
Molecule: CNC[C@H](O)c1cccc(O)c1 [PE, phenylepherine, reference compound]

Molecule: ATF: amino terminal fragment of urokinase, amino acids 1-135, growth factor domain plus kringle, SEQ ID NO:4
Contractility enhancing activity in the presence of suPAR (10 nM ATF + 10 nM suPAR (FIG. 3)): abolished
Potency at enhancing vascular smooth muscle tissue contractility relative to tcuPA (compare FIGS. 2 and 3): 6 fold

Molecule: GFD: growth factor domain of uPA which binds to uPAR, SEQ ID NO:2 (SNELHQVPSNCDCLNGGTCVSNKYFSNIHWCNCPKKFGGQHCEIDKS; listed as Homo sapiens)
Effect upon PE-induced aortic contraction / vasoconstriction (10 nM uPA species (FIGS. 5A, 5B; GFD 10 nanomolar)): did not enhance contractility

B1: uPA kringle: kringle domain of uPA, amino acids 47-135, SEQ ID NO:1 (protein, listed as Homo sapiens)
chain: KTCYEGNGHFYRGKASTDTMGRPCLPWNSATVLQQTYHAHRSDALQLGLGKHNYCRNPDNRRRPWCYVQVGLKPLVQECMVHDCADGK
Direct induction of vasoconstriction (uPA kringle without PE effect (FIG. 4)): did not induce vasoconstriction directly
